Measured values as given in patent US20260048049A1, “METHODS FOR TREATING CANCER USING INHALED ANGIOGENESIS INHIBITOR” (Pulmatrix Operating Company, Inc., priority 2022, published 2026).
Where two headings read alike, the source gives them in different places.

What was measured:
[1] = UniDose POD in vitro dissolution of the impactor stage mass (ISM); format: physicochemical; conditions: 500 ml PBS pH 7.4 + 2.0% SDS, 37° C.
Excerpt: The following in vitro dissolution model was used to understand the dissolution properties of itraconazole containing dry powder aerosols. The aerosol particles were collected at well-defined aerosol particle size distribution (APSD) cut-offs using the Next Generation Impactor (NGI) (Copley Scientific, UK), and then the dissolution behavior simulated using model lung fluid.
A UniDose™ (Nanopharm, Newport, United Kingdom) aerosol dose collection system combined with a modified next generation impactor (NGI) was used to uniformly deposit the impactor stage mass (ISM), which is defined as the dose collected on and below stage 2 of a next generation impactor, onto a suitable filter for subsequent dissolution studies in a USP V—Paddle over disk (POD) apparatus.
The aerosol dose was collected in the UniDose system. […] The UniDose collection system was used to uniformly deposit the whole impactor stage mass (i.e., below stage 2 of an NGI) onto a glass microfiber filter membrane, which can be seen as where the circles (representing particles or droplets) deposit. The filter was placed into a disk cassette and dissolution studies were undertaken using 500 ml PBS pH 7.4+2.0% SDS in a USP Apparatus II POD (Paddle Over Disk, USP V) at 37° C. For all studies, sink conditions were maintained within the vessel. […]

[2] = tested on: Calu-3 cell line epithelial cell monolayers; assay: cNGI integrated dissolution and permeability study; format: in vitro ADME; conditions: Calu-3 ALI monolayer, stage 4 of cNGI
Excerpt: This was done using the following equation: […]

[3] = cited from earlier work

half-life [1]: 1.7 h
SMILES: CCC(C)n1ncn(-c2ccc(N3CCN(c4ccc(OCC5COC(Cn6cncn6)(c6ccc(Cl)cc6Cl)O5)cc4)CC3)cc2)c1=O (stereo not shown) [Pure ITZ, itraconazole]
dissolution and permeability kinetics [2]: slower dissolution and permeability kinetics than the other formulations | plasma protein binding ([3]; capsules): 99.6% | plasma protein binding ([3]; oral solution): 99.8%
